Measurements as given in US9085603B2, “Progesterone receptor antagonists” (Bayer Intellectual Property GmbH, priority 2010, dated 2015).

What was measured:
[1] = tested on: pregnant rats; assay: Abortive test on female rats (termination of early pregnancy); type: in vivo, rat; conditions: for Abortion rate: d5-d7 p.c., autopsy d9 p.c.; for In vivo properties in preclinical tests: not further specified
Procedure: The antagonistic effect of the compounds according to the invention was tested on pregnant rats (6 rats per group) on day (d) 5 to 7 post coitum (p.c.) under conventional keeping and feeding conditions.
After successful pairing, the pregnant animals (presence of sperm in the vaginal smear on day 1 of the pregnancy=d1 p.c.) were randomized and divided into the treatment group and the control group. The animals were then given, subcutaneously or orally, in each case 0.15; 0.5; 1.5 or 5 mg/kg of the test compound or […] of vehicle (benzyl benzoate/ricinus oil: 1+4 [v/v]) daily from day 5 to day 7 (d5-d7 p.c.).
The autopsy was carried out on day 9 (d9 p.c.). As the parameter of the progesterone receptor antagonistic effect, the uterus was investigated with regard to the presence of nidation sites. Here, the complete lack of nidation sites, but also the presence of pathological, haemmorhagic or otherwise abnormal nidation sites, on day 9 (d9 p.c.) was evaluated as an abortion.

[2] = target: T1, human progesterone receptor A (Homo sapiens, UniProt P06401); assay: Progesterone receptor antagonistic effect in stably transfected SK-N-MC cells, MTV-LUC reporter (PR-A); type: cell-based; conditions: antagonism of 0.1 nmol/l promegestone, luciferase reporter, 24 hours
T1 construct: expressed in transfected cells; host or cells: SK-N-MC human neuroblastoma cells, stably transfected with pRChPR-A-neo and pMMTV-LUC
T1 sequence (P06401 1-769 isoform P06401-2): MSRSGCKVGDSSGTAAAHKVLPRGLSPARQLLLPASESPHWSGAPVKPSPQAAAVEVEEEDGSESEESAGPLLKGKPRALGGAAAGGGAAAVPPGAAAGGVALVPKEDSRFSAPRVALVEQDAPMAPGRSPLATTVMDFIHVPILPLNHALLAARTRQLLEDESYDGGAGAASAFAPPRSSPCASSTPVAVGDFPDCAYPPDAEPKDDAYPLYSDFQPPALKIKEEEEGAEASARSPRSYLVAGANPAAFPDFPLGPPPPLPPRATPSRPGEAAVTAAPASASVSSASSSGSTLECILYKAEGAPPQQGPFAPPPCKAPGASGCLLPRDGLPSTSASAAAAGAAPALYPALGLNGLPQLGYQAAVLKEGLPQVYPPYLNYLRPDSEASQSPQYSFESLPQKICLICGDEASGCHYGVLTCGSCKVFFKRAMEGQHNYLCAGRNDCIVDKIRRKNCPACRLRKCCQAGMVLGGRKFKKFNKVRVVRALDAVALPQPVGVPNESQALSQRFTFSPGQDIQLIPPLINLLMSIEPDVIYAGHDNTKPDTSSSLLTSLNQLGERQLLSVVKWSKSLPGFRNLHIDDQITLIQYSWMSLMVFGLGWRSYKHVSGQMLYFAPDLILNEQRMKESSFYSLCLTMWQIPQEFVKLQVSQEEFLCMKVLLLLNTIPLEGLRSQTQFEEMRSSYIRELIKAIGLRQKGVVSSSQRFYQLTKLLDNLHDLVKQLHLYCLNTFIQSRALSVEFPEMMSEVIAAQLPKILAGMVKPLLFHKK
Procedure, shortened: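 Stably transfected SK-N-MC cells with PR-A or PR-B and MMTV-LUC reporter, treated 24 h with 0.1 nmol/l promegestone plus test compound at 0.01 nmol/l–1 μmol/l. Luciferase in cell lysates read as RLU; values given as percentage efficacy and IC50.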

[3] = target: T2, human progesterone receptor B (Homo sapiens, UniProt P06401); assay: Progesterone receptor antagonistic effect in stably transfected SK-N-MC cells, MTV-LUC reporter (PR-B); type: cell-based; conditions: antagonism of 0.1 nmol/l promegestone, luciferase reporter, 24 hours
T2 construct: expressed in transfected cells; host or cells: SK-N-MC human neuroblastoma cells, stably transfected with pRChPR-B-neo and pMMTV-LUC
T2 sequence (P06401 1-933): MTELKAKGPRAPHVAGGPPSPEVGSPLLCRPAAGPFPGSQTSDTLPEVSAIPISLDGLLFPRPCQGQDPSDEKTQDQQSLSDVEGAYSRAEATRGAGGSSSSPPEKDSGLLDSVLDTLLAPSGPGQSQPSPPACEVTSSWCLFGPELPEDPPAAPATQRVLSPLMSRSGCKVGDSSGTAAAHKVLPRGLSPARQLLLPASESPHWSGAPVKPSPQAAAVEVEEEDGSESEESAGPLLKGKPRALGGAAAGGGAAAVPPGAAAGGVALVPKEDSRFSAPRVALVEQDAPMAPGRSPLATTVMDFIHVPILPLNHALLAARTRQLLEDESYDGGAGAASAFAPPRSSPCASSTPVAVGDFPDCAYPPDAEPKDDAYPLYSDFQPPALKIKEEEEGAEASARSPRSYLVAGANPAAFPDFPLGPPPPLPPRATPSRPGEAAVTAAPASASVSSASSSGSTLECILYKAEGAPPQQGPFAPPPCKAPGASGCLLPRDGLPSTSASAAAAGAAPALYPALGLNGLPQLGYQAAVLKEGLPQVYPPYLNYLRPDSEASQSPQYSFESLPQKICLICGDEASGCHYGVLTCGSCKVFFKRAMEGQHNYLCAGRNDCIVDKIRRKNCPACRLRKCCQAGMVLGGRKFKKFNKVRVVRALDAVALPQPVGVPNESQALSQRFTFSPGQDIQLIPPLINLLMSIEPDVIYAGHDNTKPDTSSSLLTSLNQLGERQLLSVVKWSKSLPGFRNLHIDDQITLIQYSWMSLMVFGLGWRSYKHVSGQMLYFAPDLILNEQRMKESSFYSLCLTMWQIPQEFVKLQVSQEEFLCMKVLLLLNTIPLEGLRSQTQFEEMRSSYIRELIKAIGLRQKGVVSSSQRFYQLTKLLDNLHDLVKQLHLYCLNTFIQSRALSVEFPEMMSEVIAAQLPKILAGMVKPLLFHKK
Procedure: Progesterone Receptor Antagonistic Effect in Stable Transfectants of Human Neuroblastoma Cells (SK-N-MC cells) with the Human Progesterone A or Progesterone B Receptor and a MTV-LUC Reporter Construct
SK-N-MC cells (human neuroblastoma cells), which have been stably transfected with plasmids which express the human progesterone receptor B (pRChPR-B-neo) or the human progesterone receptor A (pRChPR-A-neo) and a reporter construct (pMMTV-LUC), were incubated for 24 hours either in the absence (negative control) or in the presence of increasing amounts of the particular test compound (0.01 nmol/l, 0.1 nmol/l, 1 nmol/l, 10 nmol/l, 100 nmol/l and 1 μmol/l) in order to determine the agonistic efficacy. As a positive control of the reporter gene induction, the cells were treated with the synthetic gestagen promegestone (0.01 nmol/l, 0.1 nmol/l, 1 nmol/l, 10 nmol/l, 100 nmol/l and 1 μmol/l). To determine the antagonistic activity, the cells were treated with 0.1 nmol/l of promegestone and additionally with increasing amounts of the particular test compound (0.01 nmol/l, 0.1 nmol/l, 1 nmol/l, 10 nmol/l, 100 nmol/l and 1 μmol/l). The activity of the reporter gene LUC (LUC=luciferase) was determined in the cell lysates and measured as RLU (relative light units). All measurement values are given as percentage efficacy and as EC50 or IC50 concentrations.

[4] = cited from earlier work
[5] = tested on: uterus fibroids; conditions: several clinical studies; cited from earlier work

Compound CC(=O)N1CCN(Cc2ccc([C@H]3C[C@@]4(C)C(CC[C@@]4(O)C(F)(F)C(F)(F)F)C4CCC5=CC(=O)CCC5=C43)cc2)CC1 (stereo partly drawn) [Example 11, (11β,17β)-11-{4-[(4-Acetylpiperazin-1-yl)methyl]phenyl}-17-hydroxy-17-(pentafluoroethyl)estra-4,9-dien-3-one] has an Abortion rate ([1]; daily dose 0.5 mg/kg p.o.) of 100%, an Abortion rate ([1]; daily dose 1.5 mg/kg p.o.) of 100% and an Abortion rate ([1]; daily dose 5.0 mg/kg p.o.) of 100%. For the same compound, the “In vivo properties in preclinical tests” value [1] was “exceptional in vivo properties”, the IC50 [2] was 0.095 nM and the IC50 [3] was 0.095 nM.
In the case of C[C@]12C[C@H](c3ccc(CN4CCN(S(C)(=O)=O)CC4)cc3)C3=C4CCC(=O)C=C4CC[C@H]3[C@@H]1CC[C@@]2(O)C(F)(F)C(F)(F)F [Example 12, (11β,17β)-17-Hydroxy-11-(4-{[4-(methylsulphonyl)piperazin-1-yl]methyl}phenyl)-17-(pentafluoroethyl)estra-4,9-dien-3-one], the Abortion rate ([1]; daily dose 0.5 mg/kg p.o.) is reported as 100%, the Abortion rate ([1]; daily dose 1.5 mg/kg p.o.) is reported as 100% and the Abortion rate ([1]; daily dose 5.0 mg/kg p.o.) is reported as 100%. The “In vivo properties in preclinical tests” value [1] was “exceptional in vivo properties”, the IC50 [2] was 0.17 nM and the IC50 [3] was 0.1 nM.
For CN(C)c1ccc([C@H]2C[C@]3(C)[C@@H](CC[C@]3(O)CCCO)[C@@H]3CCC4=CC(=O)CCC4=C32)cc1 [Onapristone, onapristone], the Liver function tests ([4]; clinical studies, some patients) is listed as “abnormalities in liver function tests were observed”.
For CC#C[C@]1(O)CC[C@H]2[C@@H]3CCC4=CC(=O)CCC4=C3[C@@H](c3ccc(N(C)C)cc3)C[C@@]21C [mifepristone], the “Effect on uterus fibroids” value [5] is given as “significant shrinkage of uterus fibroids” and the “Symptoms associated with uterus fibroids” value [5] is given as “significant reduction in the symptoms”.
For COCC(=O)[C@@]1(OC(C)=O)CC[C@H]2[C@@H]3CCC4=CC(=O)CCC4=C3[C@@H](c3ccc(N(C)C)cc3)C[C@@]21C [proellex], the “Effect on uterus fibroids” value [5] is given as “significant shrinkage of uterus fibroids”, the “Symptoms associated with uterus fibroids” value [5] is given as “significant reduction in the symptoms” and the Liver enzymes ([4]; relatively high dosages) is given as “induction of liver enzymes”.
